{
  "source": "patent US20190100534A1",
  "about": "“Cephem Compounds with Latent Reactive Groups” (Gladius Pharmaceuticals, Inc., priority 2017, published 2019)",
  "key": {"ENC (ATCC NDM-1)": {"system": "ENC (ATCC NDM-1)", "experiment": "MIC determination", "type": "cell-based, Enterobacter cloacae", "conditions": "CAMH broth, 20 μM Apo-Transferrin, 37° C., 18 hours", "how_it_was_run": "(§1)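 Growth inhibition was judged by well clarity after 18 h at 37 °C in transferrin-supplemented (20 μM apo form) CAMH. Standardized suspensions (0.08-0.1 OD600) were added within 30 min of preparation.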"}, "A. baumannii": {"system": "A. baumannii", "experiment": "MIC determination", "type": "cell-based, Acinetobacter baumannii", "how_it_was_run": "as §1"}, "EC (URMC-1)": {"system": "EC (URMC-1)", "experiment": "MIC determination", "type": "cell-based, Escherichia coli", "conditions": "Escherichia coli, CAMH broth, 20 μM Apo-Transferrin, 37° C., 18 hours, read-out: Minimum Inhibitory Concentrations, EC (URMC-1)", "how_it_was_run": "as §1"}, "EC(KB1 CTX-M-15)": {"system": "EC(KB1 CTX-M-15)", "experiment": "MIC determination", "type": "cell-based, Escherichia coli", "conditions": "Escherichia coli, CAMH broth, 20 μM Apo-Transferrin, 37° C., 18 hours, read-out: Minimum Inhibitory Concentrations, EC(KB1 CTX-M-15)", "how_it_was_run": "as §1"}, "EC(JMI OXA-48)": {"system": "EC(JMI OXA-48)", "experiment": "MIC determination", "type": "cell-based, Escherichia coli", "conditions": "Escherichia coli, CAMH broth, 20 μM Apo-Transferrin, 37° C., 18 hours, read-out: Minimum Inhibitory Concentrations, EC(JMI OXA-48)", "how_it_was_run": "as §1"}, "EC(ATCC NDM-1)": {"system": "EC(ATCC NDM-1)", "experiment": "MIC determination", "type": "cell-based, Escherichia coli", "conditions": "Escherichia coli, CAMH broth, 20 μM Apo-Transferrin, 37° C., 18 hours, read-out: Minimum Inhibitory Concentrations, EC(ATCC NDM-1)", "how_it_was_run": "as §1"}, "EC (URMC-3)": {"system": "EC (URMC-3)", "experiment": "MIC determination", "type": "cell-based, Escherichia coli", "conditions": "Escherichia coli, CAMH broth, 20 μM Apo-Transferrin, 37° C., 18 hours, read-out: Minimum Inhibitory Concentrations, EC (URMC-3)", "how_it_was_run": "as §1"}, "EC (RR -2)": {"system": "EC (RR -2)", "experiment": "MIC determination", "type": "cell-based, Escherichia coli", "conditions": "CAMH broth, 20 μM Apo-Transferrin, 37° C., 18 hours", "how_it_was_run": "as §1"}, "EC (URMC-2)": {"system": "EC (URMC-2)", "experiment": "MIC determination", "type": "cell-based, Escherichia coli", "conditions": "Escherichia coli, CAMH broth, 20 μM Apo-Transferrin, 37° C., 18 hours, read-out: Minimum Inhibitory Concentrations, EC (URMC-2)", "how_it_was_run": "as §1"}, "EC (RR -1)": {"system": "EC (RR -1)", "experiment": "MIC determination", "type": "cell-based, Escherichia coli", "conditions": "CAMH broth, 20 μM Apo-Transferrin, 37° C., 18 hours", "how_it_was_run": "as §1"}, "EC(KB2 CTX-M-15)": {"system": "EC(KB2 CTX-M-15)", "experiment": "MIC determination", "type": "cell-based, Escherichia coli", "conditions": "Escherichia coli, CAMH broth, 20 μM Apo-Transferrin, 37° C., 18 hours, read-out: Minimum Inhibitory Concentrations, EC(KB2 CTX-M-15)", "how_it_was_run": "as §1"}, "KP (RR -1)": {"system": "KP (RR -1)", "experiment": "MIC determination", "type": "cell-based, Klebsiella pneumoniae", "conditions": "CAMH broth, 20 μM Apo-Transferrin, 37° C., 18 hours", "how_it_was_run": "as §1"}, "KP (URMC-2)": {"system": "KP (URMC-2)", "experiment": "MIC determination", "type": "cell-based, Klebsiella pneumoniae", "conditions": "CAMH broth, 20 μM Apo-Transferrin, 37° C., 18 hours", "how_it_was_run": "as §1"}, "KP(GJ 5934 TEM-26)": {"system": "KP(GJ 5934 TEM-26)", "experiment": "MIC determination", "type": "cell-based, Klebsiella pneumoniae", "conditions": "CAMH broth, 20 μM Apo-Transferrin, 37° C., 18 hours", "how_it_was_run": "as §1"}, "KP (GJ 5659 TEM-26)": {"system": "KP (GJ 5659 TEM-26)", "experiment": "MIC determination", "type": "cell-based, Klebsiella pneumoniae", "conditions": "CAMH broth, 20 μM Apo-Transferrin, 37° C., 18 hours", "how_it_was_run": "as §1"}, "KP(JMI KPC-2)": {"system": "KP(JMI KPC-2)", "experiment": "MIC determination", "type": "cell-based, Klebsiella pneumoniae", "conditions": "CAMH broth, 20 μM Apo-Transferrin, 37° C., 18 hours", "how_it_was_run": "as §1"}, "KP (URMC-1)": {"system": "KP (URMC-1)", "experiment": "MIC determination", "type": "cell-based, Klebsiella pneumoniae", "conditions": "CAMH broth, 20 μM Apo-Transferrin, 37° C., 18 hours", "how_it_was_run": "as §1"}, "KP (URMC-3)": {"system": "KP (URMC-3)", "experiment": "MIC determination", "type": "cell-based, Klebsiella pneumoniae", "conditions": "CAMH broth, 20 μM Apo-Transferrin, 37° C., 18 hours", "how_it_was_run": "as §1"}, "KP (ATCC KPC-3)": {"system": "KP (ATCC KPC-3)", "experiment": "MIC determination", "type": "cell-based, Klebsiella pneumoniae", "conditions": "CAMH broth, 20 μM Apo-Transferrin, 37° C., 18 hours", "how_it_was_run": "as §1"}, "KP(ATCC TEM-10/TEM-12)": {"system": "KP(ATCC TEM-10/TEM-12)", "type": "cell-based, Klebsiella pneumoniae", "conditions": "CAMH broth, 20 μM Apo-Transferrin, 37° C., 18 hours", "how_it_was_run": "as §1"}, "[1]": {"system": "Pseudomonas aeruginosa PA-RR-(980151052)", "experiment": "MIC determination", "type": "cell-based", "conditions": "Pseudomonas aeruginosa; PA-RR-(980151052); CAMH broth, 20 μM Apo-Transferrin, 37° C., 18 hours; read-out: Minimum Inhibitory Concentrations, PA-RR-(980151052)", "how_it_was_run": "as §1"}, "[2]": {"system": "Pseudomonas aeruginosa PA-RR-(G7304100)", "experiment": "MIC determination", "type": "cell-based", "conditions": "Pseudomonas aeruginosa; PA-RR-(G7304100); CAMH broth, 20 μM Apo-Transferrin, 37° C., 18 hours; read-out: Minimum Inhibitory Concentrations, PA-RR-(G7304100)", "how_it_was_run": "as §1"}, "[3]": {"system": "Pseudomonas aeruginosa PA-RR-(G7305586)", "experiment": "MIC determination", "type": "cell-based", "conditions": "Pseudomonas aeruginosa; PA-RR-(G7305586); CAMH broth, 20 μM Apo-Transferrin, 37° C., 18 hours; read-out: Minimum Inhibitory Concentrations, PA-RR-(G7305586)", "how_it_was_run": "as §1"}, "[4]": {"system": "Pseudomonas aeruginosa PA (RR-2)", "experiment": "MIC determination", "type": "cell-based", "conditions": "Pseudomonas aeruginosa; PA (RR-2); CAMH broth, 20 μM Apo-Transferrin, 37° C., 18 hours; read-out: Minimum Inhibitory Concentrations, PA (RR-2)", "how_it_was_run": "as §1"}, "[5]": {"system": "Pseudomonas aeruginosa PA (URMC-3)", "experiment": "MIC determination", "type": "cell-based", "conditions": "Pseudomonas aeruginosa; PA (URMC-3); CAMH broth, 20 μM Apo-Transferrin, 37° C., 18 hours; read-out: Minimum Inhibitory Concentrations, PA (URMC-3)", "how_it_was_run": "as §1"}, "[6]": {"system": "Pseudomonas aeruginosa PA-RR-(98023895)", "experiment": "MIC determination", "type": "cell-based", "conditions": "Pseudomonas aeruginosa; PA-RR-(98023895); CAMH broth, 20 μM Apo-Transferrin, 37° C., 18 hours; read-out: Minimum Inhibitory Concentrations, PA-RR-(98023895)", "how_it_was_run": "as §1"}, "CF (RR -1)": {"system": "CF (RR -1)", "experiment": "MIC determination", "type": "cell-based, Citrobacter freundii", "conditions": "CAMH broth, 20 μM Apo-Transferrin, 37° C., 18 hours", "how_it_was_run": "as §1"}},
  "data": [
    {"smiles": "CC(C)(O/N=C(\\C(=O)N[C@@H]1C(=O)N2C(C(=O)O)=C(C=Cc3ccc(C[N+]4(C)CCc5ccc(O)c(O)c5C4)cc3)CS[C@H]12)c1csc(N)n1)C(=O)O", "note": "(mixture of isomers) [Compound 442, 2-(4-((E/Z)-2-((6R,7R)-7-((Z)-2-(2-aminothiazol-4-yl)-2-(((2-carboxypropan-2-yl)oxy)imino)acetamido)-2-carboxy-8-oxo-5-thia-1-azabicyclo[4.2.0]oct-2-en-3 yl)vinyl)benzyl)-7,8-dihydroxy-2-methyl-1,2,3,4-tetrahydroisoquinolin-2-ium]", "values": [
      {"measurement": "Mimimum Inhibitory Concentrations, ENC (ATCC NDM-1)", "setting": "ENC (ATCC NDM-1)", "value": ">64", "unit": "microgram/mL"},
      {"measurement": "MIC", "setting": "A. baumannii; Acinetobacter baumannii, A. baumannii, CAMH broth, 20 μM Apo-Transferrin, 37° C., 18 hours, read-out: Minimum Inhibitory Concentrations, A. baumannii", "value": 1, "unit": "µg/mL"},
      {"measurement": "MICs for an Acinetobacter baumannii strain, in words", "setting": "A. baumannii; review of Table 2", "value": "low microgram/mL MICs"},
      {"measurement": "MIC", "setting": "EC (URMC-1)", "value": 0.25, "unit": "µg/mL"},
      {"measurement": "MIC", "setting": "EC(KB1 CTX-M-15)", "value": 32, "unit": "µg/mL"},
      {"measurement": "MIC", "setting": "EC(JMI OXA-48)", "value": 4, "unit": "µg/mL"},
      {"measurement": "MIC", "setting": "EC(ATCC NDM-1)", "value": "> 64", "unit": "µg/mL"},
      {"measurement": "MIC", "setting": "EC (URMC-3)", "value": 0.13, "unit": "µg/mL"},
      {"measurement": "Mimimum Inhibitory Concentrations, EC (RR -2)", "setting": "EC (RR -2)", "value": 0.13, "unit": "microgram/mL"},
      {"measurement": "MIC", "setting": "EC (URMC-2)", "value": 0.13, "unit": "µg/mL"},
      {"measurement": "Mimimum Inhibitory Concentrations, EC (RR -1)", "setting": "EC (RR -1)", "value": 0.25, "unit": "microgram/mL"},
      {"measurement": "MIC", "setting": "EC(KB2 CTX-M-15)", "value": 32, "unit": "µg/mL"},
      {"measurement": "Mimimum Inhibitory Concentrations, KP (RR -1)", "setting": "KP (RR -1)", "value": 0.25, "unit": "microgram/mL"},
      {"measurement": "Minimum Inhibitory Concentrations, KP (URMC-2)", "setting": "KP (URMC-2)", "value": 0.25, "unit": "microgram/mL"},
      {"measurement": "Minimum Inhibitory Concentrations, KP(GJ 5934 TEM-26)", "setting": "KP(GJ 5934 TEM-26)", "value": 0.5, "unit": "microgram/mL"},
      {"measurement": "Minimum Inhibitory Concentrations, KP (GJ 5659 TEM-26)", "setting": "KP (GJ 5659 TEM-26)", "value": 0.5, "unit": "microgram/mL"},
      {"measurement": "Minimum Inhibitory Concentrations, KP(JMI KPC-2)", "setting": "KP(JMI KPC-2)", "value": 64, "unit": "microgram/mL"},
      {"measurement": "Minimum Inhibitory Concentrations, KP (URMC-1)", "setting": "KP (URMC-1)", "value": 0.13, "unit": "microgram/mL"},
      {"measurement": "Minimum Inhibitory Concentrations, KP (URMC-3)", "setting": "KP (URMC-3)", "value": "≤0.06", "unit": "microgram/mL"},
      {"measurement": "Minimum Inhibitory Concentrations, KP (ATCC KPC-3)", "setting": "KP (ATCC KPC-3)", "value": ">64", "unit": "microgram/mL"},
      {"measurement": "Minimum Inhibitory Concentrations, KP(ATCC TEM-10/TEM-12)", "setting": "KP(ATCC TEM-10/TEM-12)", "value": 4, "unit": "microgram/mL"},
      {"measurement": "MIC", "setting": "[1]", "value": 2, "unit": "µg/mL"},
      {"measurement": "MIC", "setting": "[2]", "value": "≤ 0.06", "unit": "µg/mL"},
      {"measurement": "MIC", "setting": "[3]", "value": 2, "unit": "µg/mL"},
      {"measurement": "MIC", "setting": "[4]", "value": "≤ 0.06", "unit": "µg/mL"},
      {"measurement": "MIC", "setting": "[5]", "value": 0.5, "unit": "µg/mL"},
      {"measurement": "MIC", "setting": "[6]", "value": 8, "unit": "µg/mL"},
      {"measurement": "Mimimum Inhibitory Concentrations, CF (RR -1)", "setting": "CF (RR -1)", "value": 0.25, "unit": "microgram/mL"}
    ]}
  ]
}
